tested on: cranial nerve tissue (brain) of juvenile zebrafish; assay: Example 3: brain fluorescence of juvenile zebrafish exposed to compound (23) probe liquid with or without MK571 and FTC; type: in vivo; conditions: concluded from single versus combined MK571 and FTC
Method: A probe liquid 6 was obtained by changing the compound (8) used in the probe liquid 1 of Example 1 to the compound (23). Further, a probe liquid 7 was obtained by adding MK571 and FTC, each at 30 μM, as a transporter inhibitor.
4 mL of the probe liquid 6 and 7 and each of 20 juvenile zebrafish on 7 days post fertilization were each loaded into any well of a 6-well multiplate, and exposure was started. The zebrafish during exposure were each taken out of the well 60 minutes, 180 minutes and 360 minutes after the starting of the exposure, and in accordance with the same operation as in Example 1, fluorescence images of a cranial nerve tissue and a blood vessel on the zebrafish body side were captured and fluorescence intensities in the CNS tissue and the blood vessel were evaluated.

| SMILES | transport by transporters (substrate property) |
| --- | --- |
| COc1ccc(N2c3ccc(/C=C4/SC(=S)N(CC(=O)O)C4=O)cc3C3CCCC32)cc1 (centres unmarked) [Compound 23] | transported by both of MRP and BCRP |

tested on: not listed separately; assay: Measurement of fluorescence characteristics of dye compounds; type: physicochemical; conditions: 5-μM solution in DMSO
Text: 5-μM solutions of Dye compounds 1 to 46 in DMSO were each prepared and measured for its excitation wavelength and fluorescence emission wavelength with an FL4500 fluorescence spectrometer manufactured by Hitachi High-Technologies Corporation.

| SMILES | Excitation wavelength λex | Fluorescence wavelength λem |
| --- | --- | --- |
| O=C(O)CCN1C(=O)/C(=C\c2cc(Br)c3c(c2)C2CCCC2N3c2ccc(Br)cc2)SC1=S (centres unmarked) [Compound 1] | 474 nm | 590 nm |
| COc1ccc(N2c3ccc(/C=C4/SC(=S)N(CCC(=O)O)C4=O)cc3C3CCCC32)cc1 (centres unmarked) [Compound 2] | 521 nm | 634 nm |
| O=C(O)CCN1C(=O)/C(=C\c2ccc3c(c2)C2CCCC2N3Cc2ccccc2)SC1=S (centres unmarked) [Compound 3] | 510 nm | 584 nm |
| O=C(O)CCN1C(=O)/C(=C\c2ccc3c(c2)C2CCCC2N3c2ccccc2)SC1=S (centres unmarked) [Compound 4] | 502 nm | 604 nm |
| COc1ccc2cc(N3c4ccc(/C=C5/SC(=S)N(CCC(=O)O)C5=O)cc4C4CCCC43)ccc2c1 (centres unmarked) [Compound 5] | 521 nm | 646 nm |
| CN1c2ccc(/C=C3/SC(=S)N(CCC(=O)O)C3=O)cc2C2CCCC21 (centres unmarked) [Compound 6] | 517 nm | 590 nm |
| CCN1c2ccc(/C=C3/SC(=S)N(CCC(=O)O)C3=O)cc2CC1C (centres unmarked) [Compound 7] | 509 nm | 593 nm |
| CCN1CCc2cc(/C=C3/SC(=S)N(CCC(=O)O)C3=O)ccc21 [Compound 8] | 510 nm | 597 nm |
| CCn1c2ccccc2c2cc(/C=C3/SC(=S)N(CCC(=O)O)C3=O)ccc21 [Compound 9] | 452 nm | 540 nm |
| CCCN1c2ccc(/C=C3/SC(=S)N(CCC(=O)O)C3=O)cc2C2CCCC21 (centres unmarked) [Compound 10] | 519 nm | 592 nm |
| CCN1c2ccc(/C=C/C=C3/SC(=S)N(CCC(=O)O)C3=O)cc2C2CCCC21 (centres unmarked) [Compound 11] | 564 nm | 671 nm |
| CSc1ccc(N2c3ccc(/C=C4/SC(=S)N(CCC(=O)O)C4=O)cc3C3CCCC32)cc1 (centres unmarked) [Compound 12] | 518 nm | 647 nm |
| CCN1c2ccc(/C=C3/SC(=S)N(CCC(=O)O)C3=O)cc2C2CCCC21 (centres unmarked) [Compound 13] | 513 nm | 587 nm |
| CCN1c2ccc(/C=C3/SC(=S)N(CC(=O)O)C3=O)cc2C2CCCC21 (centres unmarked) [Compound 14] | 507 nm | 585 nm |
| CSc1ccc(N2c3ccc(/C=C4/SC(=S)N(CC(=O)O)C4=O)cc3C3CCCC32)cc1 (centres unmarked) [Compound 15] | 517 nm | 638 nm |
| CCN1c2ccc(/C=C3/SC(=S)N(CC(=O)O)C3=O)cc2CC1C (centres unmarked) [Compound 16] | 510 nm | 590 nm |
| O=C(O)CN1C(=O)/C(=C\c2ccc3c(c2)C2CCCC2N3c2ccccc2)SC1=S (centres unmarked) [Compound 17] | 508 nm | 604 nm |
| CSc1cccc(N2c3ccc(/C=C4/SC(=S)N(CC(=O)O)C4=O)cc3C3CCCC32)c1 (centres unmarked) [Compound 18] | 509 nm | 604 nm |
| CCN1CCc2cc(/C=C3/SC(=S)N(CC(=O)O)C3=O)ccc21 [Compound 19] | 511 nm | 594 nm |
| O=C(O)CN1C(=O)/C(=C\c2ccc3c(c2)C2CCCC2N3Cc2ccccc2)SC1=S (centres unmarked) [Compound 20] | 506 nm | 581 nm |
| O=C(O)CN1C(=O)/C(=C\c2cc(Br)c3c(c2)C2CCCC2N3c2ccc(Br)cc2)SC1=S (centres unmarked) [Compound 21] | 476 nm | 580 nm |
| O=C(O)CN1C(=O)/C(=C\c2ccc3c(c2)CCN3c2ccccc2)SC1=S [Compound 22] | 505 nm | 612 nm |

| SMILES | Excitation wavelength λex | Fluorescence wavelength λem |
| --- | --- | --- |
| COc1ccc(N2c3ccc(/C=C4/SC(=S)N(CC(=O)O)C4=O)cc3C3CCCC32)cc1 (centres unmarked) [Compound 23] | 518 nm | 637 nm |
| O=C(O)CN1C(=O)/C(=C\c2cc(Br)c3c(c2)C2CCCC2N3Cc2ccccc2)SC1=S (centres unmarked) [Compound 24] | 486 nm | 578 nm |
| CCn1c2ccccc2c2cc(/C=C3/SC(=S)N(CC(=O)O)C3=O)ccc21 [Compound 25] | 453 nm | 536 nm |
| COc1ccc2cc(N3c4ccc(/C=C5/SC(=S)N(CC(=O)O)C5=O)cc4C4CCCC43)ccc2c1 (centres unmarked) [Compound 26] | 525 nm | 646 nm |
| CCOC(=O)CCN1C(=O)/C(=C\c2ccc3c(c2)C2CCCC2N3CC)SC1=S (centres unmarked) [Compound 27] | 518 nm | 590 nm |
| CCN1C(=O)/C(=c2\s/c(=C/c3ccc4c(c3)C3CCCC3N4c3ccccc3)c(=O)n2CC(=O)O)SC1=S (centres unmarked) [Compound 29] | 525 nm | 610 nm |
| CCN1C(=O)/C(=c2\s/c(=C/c3ccc4c(c3)C3CCCC3N4c3ccc(OC)cc3)c(=O)n2CC(=O)O)SC1=S (centres unmarked) [Compound 31] | 550 nm | 650 nm |
| CCN1C(=O)/C(=c2\s/c(=C/c3ccc4c(c3)C3CCCC3N4c3ccc(SC)cc3)c(=O)n2CC(=O)O)SC1=S (centres unmarked) [Compound 32] | 544 nm | 658 nm |
| CCN1C(=O)/C(=c2\s/c(=C/c3ccc4c(c3)C3CCCC3N4c3cccc(SC)c3)c(=O)n2CC(=O)O)SC1=S (centres unmarked) [Compound 33] | 536 nm | 632 nm |
| CCN1C(=O)/C(=c2\s/c(=C/c3ccc4c(c3)C3CCCC3N4c3ccc4cc(OC)ccc4c3)c(=O)n2CC(=O)O)SC1=S (centres unmarked) [Compound 34] | 543 nm | 649 nm |
| CCN1C(=O)/C(=c2\s/c(=C/c3cc(Br)c4c(c3)C3CCCC3N4c3ccc(Br)cc3)c(=O)n2CC(=O)O)SC1=S (centres unmarked) [Compound 35] | 520 nm | 617 nm |
| CCN1C(=O)/C(=c2\s/c(=C/c3ccc4c(c3)CC(C)N4CC)c(=O)n2CC(=O)O)SC1=S (centres unmarked) [Compound 36] | 541 nm | 640 nm |
| CCN1C(=O)/C(=c2\s/c(=C/c3cc(Br)c4c(c3)C3CCCC3N4Cc3ccccc3)c(=O)n2CC(=O)O)SC1=S (centres unmarked) [Compound 37] | 525 nm | 616 nm |
| CCN1C(=O)/C(=c2\s/c(=C/c3ccc4c(c3)CCN4CC)c(=O)n2CC(=O)O)SC1=S [Compound 38] | 541 nm | 642 nm |
| CCN1C(=O)/C(=c2\s/c(=C/c3ccc4c(c3)CCN4c3ccccc3)c(=O)n2CC(=O)O)SC1=S [Compound 39] | 536 nm | 640 nm |
| CCN1C(=O)/C(=c2\s/c(=C/c3ccc4c(c3)c3ccccc3n4CC)c(=O)n2CC(=O)O)SC1=S [Compound 40] | 494 nm | 551 nm |
| C=CCN1C(=O)/C(=c2\s/c(=C/c3ccc4c(c3)C3CCCC3N4c3ccc(OC)cc3)c(=O)n2CC(=O)O)SC1=S (centres unmarked) [Compound 41] | 515 nm | 624 nm |
| C=CCN1C(=O)/C(=c2\s/c(=C/c3ccc4c(c3)C3CCCC3N4c3ccccc3)c(=O)n2CC(=O)O)SC1=S (centres unmarked) [Compound 42] | 543 nm | 636 nm |
| CCCCCCCCN1C(=O)/C(=c2\s/c(=C/c3ccc4c(c3)C3CCCC3N4c3ccc(OC)cc3)c(=O)n2CC(=O)OCC)SC1=S (centres unmarked) [Compound 43] | 552 nm | 668 nm |
| CCCCCN1C(=O)/C(=c2\s/c(=C/c3ccc4c(c3)C3CCCC3N4c3ccc(OC)cc3)c(=O)n2CC(=O)OCC)SC1=S (centres unmarked) [Compound 44] | 548 nm | 656 nm |
| CCN1c2ccc(/C=C3/SC(=S)N(CCCCCC(=O)O)C3=O)cc2C2CCCC21 (centres unmarked) [Compound 45] | 513 nm | 589 nm |
| CCN1c2ccc(/C=C3/SC(=S)N(CCCCCCCCCCC(=O)O)C3=O)cc2C2CCCC21 (centres unmarked) [Compound 46] | 516 nm | 585 nm |

Source: patent US10227337B2, “Evaluation probe for central nervous system permeability, evaluation method for central nervous system permeability, and screening method using an evaluation probe for central nervous system permeability” (CANON KABUSHIKI KAISHA, priority 2011, dated 2019)
